Laboratory results published in US20150274777A1, “KETOAMIDE IMMUNOPROTEASOME INHIBITORS” (HOFFMANN-LA ROCHE INC., priority 2012, published 2015).

Tests used:
β1c = molecular target: T1, β1c (Homo sapiens, UniProt P28072+Q99436); assay: Cell-Based Proteasome Activity/Selectivity Assay (Ramos cells), substrate (LLE)2 Rh110; details: highest concentration tested 20 μM
T1 construct: protease activity associated with the proteasome complex in cultured cells; endogenous in cells; host or cells: Ramos cells
From the text: (§1) Cell-Based Proteasome Activity/Selectivity Assay
(§2) The Cell-Based Proteasome subunit activity/selectivity assay was a panel of 5 fluorogenic assays that independently measured the activity of β5c or β5i (chymotrypsin-like activity), β2c/2i (trypsin-like), and β1c or β1i (caspase-like) protease activity associated with the proteasome complex in cultured cells. Specifically, the following substrates were used for respective subunit activities: β1i: (PAL)2Rh110, β1c: (LLE)2 Rh110, β2c/2i: (KQL)2Rh110, β5c: (WLA)2Rh110, β5i: (ANW)2Rh110. The following procedure was followed:
(§3) Cell preparation: Plated 25 μl of Ramos cells (2×10^6/ml in DPBS) into half area plate (PerkinElmer Cat 6005569) to final 5×10^4 cells/well. Added 0.5 μl of 100×4-fold serial diluted test compounds or DMSO to each well. Highest concentration of compound tested was 20 μM, thus compound serial dilution started from […]. Incubated for 30 minutes at 37° C. Then equilibrated at room temperature for 15 minutes. Added 25 μl of 2× reaction mix consisting of 0.025% digitonin, 20 μM of each substrates and 0.5M sucrose in DPBS. Shaked for one minute @ 700 rpm. Incubated for 120 min at room temperature. Then read the plates with an Envision multilabel plate reader (PerkinElmer) with 500 nm excitation/519 nm emission.

β1i = molecular target: T2, β1i (Homo sapiens, UniProt P28065+P40306); assay: Cell-Based Proteasome Activity/Selectivity Assay (Ramos cells), substrate (PAL)2Rh110; details: highest concentration tested 20 μM
T2 construct: protease activity associated with the proteasome complex in cultured cells; endogenous in cells; host or cells: Ramos cells
From the text: as §1, §2, §3

β5c = molecular target: T3, β5c (Homo sapiens, UniProt P20618+P28074); assay: Cell-Based Proteasome Activity/Selectivity Assay (Ramos cells), substrate (WLA)2Rh110; details: highest concentration tested 20 μM
T3 construct: protease activity associated with the proteasome complex in cultured cells; endogenous in cells; host or cells: Ramos cells
From the text: as §1, §2, §3

β5i = molecular target: T4, β5i (Homo sapiens, UniProt P20618+P28062); assay: Cell-Based Proteasome Activity/Selectivity Assay (Ramos cells), substrate (ANW)2Rh110; details: highest concentration tested 20 μM, read-out: Ic50 ramos:ac-(anw)2-r110
T4 construct: protease activity associated with the proteasome complex in cultured cells; endogenous in cells; host or cells: Ramos cells
From the text: as §1, §2, §3

β2c/2i = assay: Cell-Based Proteasome Activity/Selectivity Assay (Ramos cells), substrate (KQL)2Rh110; details: highest concentration tested 20 μM
From the text: as §1, §2, §3

[1] = system: IP10 level in PBMCs stimulated with CpG Type A; assay: PBMC IP-10 Assay; format: cell-based; details: CpG Type A 2.5 μM
Method: PBMCs were isolated from whole blood as follows: Blood was collected in a sterile environment in heparinized tubes. Blood was diluted with an equal volume PBS/2% FCS and 30 ml of this mixture was added to ACCUSPIN tubes containing 15 ml Histopaque-1077 already centrifuged at 800 g for 30 seconds and warmed up at room temperature. The tubes were then centrifuged at 800 g for 20 minutes at room temperature with no brake. The mononuclear band, just above the polyethylene frit, was removed by Pasteur pipet. These mononuclear cells were washed three times with sterile PBS, counted, and resuspended in RPMI 1640 supplemented with 10% heat inactivated fetal calf serum, 10 mM HEPES, 1 mM sodium pyruvate, penicillin (50 U/ml), streptomycin (50 μg/ml) and glutamine (2 mM) to approximately 1.5×10^6/ml. Approximately 2×10^5 cells/well were plated in 96 well tissue culture plates (BD Falcon 353072), and preincubated 60 mi/37° C. with a titration of compounds, in a final concentration of 1% DMSO. Cells were then stimulated with CpG Type A (Invivogen, Cat #tlrl-2216; ODN 2216) at a final concentration of 2.5 μM. Cells were incubated overnight, and supernatants were removed. PBMC viability of cells remaining in the well was measured with ATPlite luminescence assay (Perkin-Elmer) per the manufacturer's instructions. Luminescence was measured on the Perkin-Elmer Envision, using the luminescence filter. IP10 level was measured with CXCL10/IP10 AlphaLISA kit (Perkin-Elmer) per the manufacturer's instructions, except halving all volumes. Fluorescence was measured on the Envision Multilabel plate reader, using the AlphaScreen standard settings.

Row | Structure (SMILES) | IC50 (β1c) | IC50 (β1i) | IC50 (β5c) | IC50 (β5i) | IC50 (β2c/2i) | EC50 [1]
1 | C[C@H](NC(=O)OCc1ccccc1)C(=O)NC(CC1CCOCC1)C(=O)N[C@@H](Cc1ccccc1)C(=O)C(=O)NCc1ccccc1 (stereo partly drawn) [Example 56, {(S)-1-[1-((S)-1-Benzyl-2-benzylcarbamoyl-2-oxo-ethylcarbamoyl)-2-(tetrahydro-pyran-4-yl)-ethylcarbamoyl]-ethyl}-carbamic acid benzyl ester] | > 20000 nM | 879 nM | 3120 nM | 115 nM | > 20000 nM | 3230 nM
2 | CCCCC(NC(=O)[C@H](COC)NC(=O)[C@H](C)NC(=O)c1cc(C)on1)C(=O)C(=O)NCc1ccccc1 (mixture of isomers) [Example 6, 5-Methyl-isoxazole-3-carboxylic acid {(S)-1-[(S)-1-((S)-1-benzylaminooxalyl-pentylcarbamoyl)-2-methoxy-ethylcarbamoyl]-ethyl}-amide] | > 20000 nM | 949 nM | 5520 nM | 1040 nM | > 20000 nM | 13600 nM
3 | COc1ccc(C[C@H](NC(=O)[C@H](C)NC(=O)CN2CCOc3ccccc32)C(=O)N[C@@H](Cc2ccccc2)C(=O)C(=O)NCc2ccccc2)cc1 [Example 35, (S)—N-Benzyl-3-[(S)-2-[(S)-2-(2-2,3-dihydro-benzo[1,4]oxazin-4-yl-acetylamino)-propionylamino]-3-(4-methoxy-phenyl)-propionylamino]-2-oxo-4-phenyl-butyramide] | 13400 nM | 395 nM | 261 nM | 4 nM | > 20000 nM | 615 nM
4 | C[C@H](NC(=O)c1ccnn1C)C(=O)N[C@@H](Cc1c[nH]c2ccccc12)C(=O)N[C@@H](Cc1ccccc1)C(=O)C(=O)NCc1ccccc1 [Example 30, 2-Methyl-2H-pyrazole-3-carboxylic acid {(S)-1-[(S)-1-((S)-1-benzyl-2-benzylcarbamoyl-2-oxo-ethylcarbamoyl)-2-(1H-indol-3-yl)-ethylcarbamoyl]-ethyl}-amide] | 12500 nM | 569 nM | 2480 nM | 47 nM | 10000 nM | 4090 nM
5 | COc1ccc(C[C@H](NC(=O)C2(NC(=O)C3Cc4ccccc4C3)CC2)C(=O)N[C@@H](Cc2ccccc2)C(=O)C(=O)NCc2ccccc2)cc1 [Example 27, Indan-2-carboxylic acid {1-[(S)-1-((S)-1-benzyl-2-benzylcarbamoyl-2-oxo-ethylcarbamoyl)-2-(4-methoxy-phenyl)-ethylcarbamoyl]-cyclopropyl}-amide] | 12900 nM | 5060 nM | 4520 nM | 40 nM | > 20000 nM | 4870 nM
6 | Cc1cc(C(=O)N[C@@H](C)C(=O)N[C@@H](Cc2c[nH]c3ccccc23)C(=O)N[C@@H](Cc2ccccc2)C(=O)C(=O)NCc2ccccc2)no1 [Example 47, 5-Methyl-isoxazole-3-carboxylic acid {(S)-1-[(S)-1-((S)-1-benzyl-2-benzylcarbamoyl-2-oxo-ethylcarbamoyl)-2-(1H-indol-3-yl)-ethylcarbamoyl]-ethyl}-amide] | 6270 nM | 705 nM | 1390 nM | 34 nM | > 20000 nM | 2290 nM

More lines, main results first:

Row | IC50 (β1c) | IC50 (β1i) | IC50 (β5c) | IC50 (β5i) | IC50 (β2c/2i) | Structure (SMILES) | EC50 [1]
7 | 3280 nM | 441 nM | 173 nM | 5 nM | 7020 nM | C[C@H](NC(=O)C1Cc2ccccc2C1)C(=O)N[C@@H](Cc1c[nH]c2ccccc12)C(=O)N[C@@H](Cc1ccccc1)C(=O)C(=O)NCc1ccccc1 [Example 18, Indan-2-carboxylic acid {(S)-1-[(S)-1-((S)-1-benzyl-2-benzylcarbamoyl-2-oxo-ethylcarbamoyl)-2-(1H-indol-3-yl)-ethylcarbamoyl]-ethyl}-amide] | 672 nM
8 | 5700 nM | 91 nM | 763 nM | 83 nM | > 20000 nM | CCCC[C@H](NC(=O)[C@H](Cc1c[nH]c2ccccc12)NC(=O)[C@H](C)NC(=O)c1cc(C)on1)C(=O)C(=O)NCc1ccccc1 [Example 4, 5-Methyl-isoxazole-3-carboxylic acid {(S)-1-[(S)-1-((S)-1-benzylaminooxalyl-pentylcarbamoyl)-2-(1H-indol-3-yl)-ethylcarbamoyl]-ethyl}-amide] | 3910 nM
9 | 18300 nM | 257 nM | 192 nM | 3 nM | > 20000 nM | C[C@H](NC(=O)C1Cc2ccccc2C1)C(=O)N[C@@H](Cc1ccccc1)C(=O)N[C@@H](Cc1ccccc1)C(=O)C(=O)NCc1ccccc1 [Example 43, Indan-2-carboxylic acid {(S)-1-[(S)-1-((S)-1-benzyl-2-benzylcarbamoyl-2-oxo-ethylcarbamoyl)-2-phenyl-ethylcarbamoyl]-ethyl}-amide] | 784 nM
10 | 9560 nM |  | 2960 nM | 403 nM | > 20000 nM | CCCC[C@H](NC(=O)[C@H](Cc1c[nH]c2ccccc12)NC(=O)[C@H](C)NC(=O)c1ccnn1C)C(=O)C(=O)NCc1ccccc1 [Example 13, 2-Methyl-2H-pyrazole-3-carboxylic acid {(S)-1-[(S)-1-((S)-1-benzylaminooxalyl-pentylcarbamoyl)-2-(1H-indol-3-yl)-ethylcarbamoyl]-ethyl}-amide] | 3970 nM
11 | 7050 nM | 441 nM | 272 nM | 5 nM | 5710 nM | CC(C)C[C@H](NC(=O)[C@H](C)NC(=O)C1Cc2ccccc2C1)C(=O)N[C@@H](Cc1ccccc1)C(=O)C(=O)NCc1ccccc1 [Example 24, Indan-2-carboxylic acid {(S)-1-[(S)-1-((S)-1-benzyl-2-benzylcarbamoyl-2-oxo-ethylcarbamoyl)-3-methyl-butylcarbamoyl]-ethyl}-amide] | 433 nM
12 | > 20000 nM | 34 nM | 815 nM | 26 nM | > 20000 nM | CCCC[C@H](NC(=O)[C@H](Cc1c[nH]c2ccccc12)NC(=O)[C@H](C)NC(=O)OCc1ccccc1)C(=O)C(=O)NCc1ccccc1 [Example 9, {(S)-1-[(S)-1-((S)-1-Benzylaminooxalyl-pentylcarbamoyl)-2-(1H-indol-3-yl)-ethylcarbamoyl]-ethyl}-carbamic acid benzyl ester] | 5290 nM
13 | > 20000 nM | 275 nM | 1900 nM | 709 nM | > 20000 nM | CCCC[C@H](NC(=O)[C@H](Cc1c[nH]c2ccccc12)NC(=O)[C@H](C)NC(=O)CN1CCOCC1)C(=O)C(=O)NCc1ccccc1 [Example 10, (S)-3-{(S)-3-(1H-Indol-3-yl)-2-[(S)-2-(2-morpholin-4-yl-acetylamino)-propionylamino]-propionylamino}-2-oxo-heptanoic acid benzylamide] | 
14 | 2980 nM |  | 473 nM | 14 nM | 8040 nM | CCCC[C@H](NC(=O)[C@H](Cc1c[nH]c2ccccc12)NC(=O)[C@H](C)NC(=O)C1Cc2ccccc2C1)C(=O)C(=O)NCc1ccccc1 [Example 11, Indan-2-carboxylic acid {(S)-1-[(S)-1-((S)-1-benzylaminooxalyl-pentylcarbamoyl)-2-(1H-indol-3-yl)-ethylcarbamoyl]-ethyl}-amide] | 1220 nM
15 | 5430 nM |  | 381 nM | 36 nM | > 20000 nM | CCCC[C@H](NC(=O)[C@H](Cc1c[nH]c2ccccc12)NC(=O)[C@H](C)NC(=O)c1cccc(Cl)c1Cl)C(=O)C(=O)NCc1ccccc1 [Example 12, N-{(S)-1-[(S)-1-((S)-1-Benzylaminooxalyl-pentylcarbamoyl)-2-(1H-indol-3-yl)-ethylcarbamoyl]-ethyl}-2,3-dichloro-benzamide] | 2610 nM
